Common to all, as to type: cell-based
Test [1] addresses IKZF1 Ikaros (Homo sapiens, UniProt Q13422+Q96SW2). Briefly: Jurkat Cellular Degradation Assay (IKZF1 Ikaros). Also noted: endogenous in cells. The following applies: Jurkat cells, 72 h; for Dmax: human, 100% = no detectable protein remaining, read-out: IKZF1 Ikaros max % deg. observed. The method, then: (§1) Jurkat cells were plated at 80,000 cells/well in 40 μL RPMI+10% FBS in a 384-well cell culture plate prior to using acoustic dispensing technology for adding a compound of interest. Cell cultures were incubated for 72 h at 37° C. and 5% CO2. In order to facilitate analysis, cell cultures were spun down at 200 rpm for 5 min and the supernatant was discarded. After shaking the plate to dislodge the cell pellet, cells were resuspended in 50 μL of Fixation Buffer (eBioscience FoxP3 buffer set 00-5523-00) for 60 min at room temperature. After centrifuging and discarding the supernatant, cells were permeabilized with 50 μL of Permeabilization buffer (eBioscience FoxP3 buffer set 00-5523-00) for 10 min at room temperature. Following permeabilization, cells were spun down and the supernatant was replaced with 20 μL fluorescently labelled antibodies against Helios, Ikaros and Aiolos or corresponding Isotype controls in 1× Permeabilization buffer (Ikaros-Alexa488 [Biolegend, Cat #368408, 1:50], Helios-PE [CST, Cat #29360, 1:50], Aiolos-Alexa647 [Biolegend, Cat #371106 Biolegend, 1:25]) and staining reactions were incubated for 1 h at room temperature while protected from light. Subsequently, 30 μL of 1× Permeabilization buffer was added prior to centrifuging the cells and discarding the supernatant. Stained cells were resuspended in 25 μL of flow cytometry staining buffer [PBS+0.2% bovine serum albumin (BSA)] and analyzed using an Intellicyt Ique Plus flow cytometer.
(§2) Table A-1 lists the maximum observed degradation of the IKZF1 protein, IKZF2 protein, and IKZF3 protein as measured in the Jurkat Cellular Degradation assay. The results in Table A-I were rounded to two digits. In the Jurkat Cellular Degradation assay, a value of 100% indicated no detectable protein remaining or complete degradation of the protein; and a value of 0% indicated no detectable degradation of the protein by the test compound.

Test [2] has as its target T1, IKZF4 Eos (Homo sapiens, UniProt Q96SW2+Q9H2S9).
T1 construct: T cells were isolated from fresh healthy leukopaks; endogenous in cells; host or cells: FACS-sorted primary human CD4+ CD127low CD25+ Treg cells from healthy leukopaks
Briefly: Human Regulatory T Cell Reprogramming Assay (IKZF4 Eos). The settings on record: CD4+ CD127low CD25+ Treg cells, 12-13 days; for DC50: concentration reducing protein level by 50% vs DMSO; for Dmax: Regulatory T cell, human, read-out: Maximum Observed Degradation IKZF4 Eos. As to the method:
(§3) Human CD4^+ T cells were isolated from fresh healthy leukopaks (Stemcell Technologies) using the RosetteSep Human CD4^+ T cell enrichment cocktail (Stemcell Technologies) and Ficoll density gradient centrifugation. Leukopaks were diluted with an equal volume of phosphate-buffered saline (PBS [Gibco]) supplemented with 2% fetal bovine serum (FBS, VWR Lifescience) and incubated with RosetteSep Human CD4^+ T cell enrichment cocktail for 20 minutes before layering on Ficoll-Paque Plus solution (GE Health Care). The cell-rich interface layer was harvested and washed twice with PBS supplemented with 2% FBS. Regulatory T cells were then isolated manually using the EasySep Human CD4 CD1271WCD25^+ Regulatory T cell isolation kit (Stemcell Technologies) according to the manufacturer's instructions. Cells were rested overnight in Roswell Park Memorial Institute (RPMI) 1640 media (Gibco) supplemented with 10% FBS, Pen/Strep (Gibco), MEM-NEAA (Gibco), and sodium pyruvate (Gibco) in a humidified incubator (37° C., 5% CO2). Cells were then stained for CD4 (clone: RPA-T4, Biolegend), CD25 (clone: 2A3, BD Biosciences), and CD127 (clone: hIL-7R-M21, BD Biosciences). CD4^+ CD127^lowCD25^+ cells were sorted on a BD FACS Aria Fusion sorter to a purity of 95% or greater. Sorted cells were immediately used or cryopreserved for downstream assays.
(§4) Fresh or cryopreserved FACS-sorted CD4^+ CD127^lowCD25^+ Treg cells were cultured at 25,000-50,000 cells/well of 96-well round bottom plates in RPMI 1640 media (Gibco) supplemented with 10% FBS, Pen/Strep (Gibco), MEM-NEAA (Gibco), and sodium pyruvate (Gibco). Cells were stimulated with Treg Xpander beads (Thermo Fisher) at cells-to-beads ratio of 1:4 in the presence of 500 U/mL recombinant human IL-2 (Proleukin). Compounds were added at titrated doses and cells were incubated at 37° C., 5% CO2 for 12-13 days. Recombinant human IL-2 and compound were replenished every 2-3 days during the entire culture duration. On day 12 or 13, cells were restimulated with phorbol 12-myristate 13-acetate (PMA) and ionomycin in the presence of the protein transport inhibitors brefeldin A and monensin (eBioscience Cell Stimulation Cocktail plus protein transport inhibitors, 500×, Catalog number 00-4975-93) before proceeding with flow cytometry staining and analysis.
(§5) For flow cytometry staining, cells were washed twice with flow cytometry staining buffer (Thermo Fisher) and incubated in Human Tru-stain Fc block (Biolegend) for 10 minutes before adding eFluor780 viability dye (Thermo Fisher) and surface marker antibody cocktail for 30 minutes at 4° C. Cells were then fixed and permeabilized by incubation with FoxP3 transcription factor staining buffer (Thermo Fisher) for 30 minutes at 4° C. as per the kit manufacturer's instructions. Cells were washed twice with the Perm/Wash buffer supplied in the kit as per the manufacturer's instructions and incubated overnight at 4° C. with an intracellular antibody cocktail comprised of antibodies specific for the transcription factors shown in Table C. Cells were washed twice with Perm/Wash buffer and resuspended in flow cytometry staining buffer (Thermo Fisher) prior to acquisition. Sample acquisition and analysis was performed using a BD LSRFortessa (BD Biosciences) flow cytometer. Single stain controls for each fluorochrome were prepared using UltraComp eBead Compensation Beads (Thermo Fisher). Data were analyzed using FlowJo version 10 and GraphPad Prism Software.
(§6) Table C-1 lists the maximum observed degradation of the IKZF2 protein and IKZF4 protein as measured in the Human Regulatory T Cell Reprogramming assay. The results in Table C-1 were rounded to two digits. In the Human Regulatory T Cell Reprogramming assay, a value of 100% indicated no detectable protein remaining or complete degradation of the protein; and a value of 0% indicated no detectable degradation of the protein by the test compound.

Test [3] deals with T2, IKZF2 Helios (Homo sapiens, UniProt Q96SW2+Q9UKS7). Briefly: Human Regulatory T Cell Reprogramming Assay (IKZF2 Helios). Also noted: T cells were isolated from fresh healthy leukopaks; endogenous in cells; host or cells: FACS-sorted primary human CD4+ CD127low CD25+ Treg cells from healthy leukopaks. The following applies: CD4+ CD127low CD25+ Treg cells, 12-13 days; for DC50: concentration reducing protein level by 50% vs DMSO; for Dmax: Regulatory T cell, human, read-out: Maximum Observed Degradation IKZF2 Helios. The method, then:
as §3, §4, §5, §6

Test [4] concerns the target T2, IKZF2 Helios. Briefly: Jurkat Cellular Degradation Assay (IKZF2 Helios). Also noted: endogenous in cells. The following applies: Jurkat cells, 72 h; for DC50: concentration reducing protein level by 50% vs DMSO; for Dmax: human, 100% = no detectable protein remaining, read-out: IKZF2 Helios max % deg. observed. As to the method:
as §1, §2

Each structure is given as a SMILES string.

T1 sequence (Q9H2S9 whole entry): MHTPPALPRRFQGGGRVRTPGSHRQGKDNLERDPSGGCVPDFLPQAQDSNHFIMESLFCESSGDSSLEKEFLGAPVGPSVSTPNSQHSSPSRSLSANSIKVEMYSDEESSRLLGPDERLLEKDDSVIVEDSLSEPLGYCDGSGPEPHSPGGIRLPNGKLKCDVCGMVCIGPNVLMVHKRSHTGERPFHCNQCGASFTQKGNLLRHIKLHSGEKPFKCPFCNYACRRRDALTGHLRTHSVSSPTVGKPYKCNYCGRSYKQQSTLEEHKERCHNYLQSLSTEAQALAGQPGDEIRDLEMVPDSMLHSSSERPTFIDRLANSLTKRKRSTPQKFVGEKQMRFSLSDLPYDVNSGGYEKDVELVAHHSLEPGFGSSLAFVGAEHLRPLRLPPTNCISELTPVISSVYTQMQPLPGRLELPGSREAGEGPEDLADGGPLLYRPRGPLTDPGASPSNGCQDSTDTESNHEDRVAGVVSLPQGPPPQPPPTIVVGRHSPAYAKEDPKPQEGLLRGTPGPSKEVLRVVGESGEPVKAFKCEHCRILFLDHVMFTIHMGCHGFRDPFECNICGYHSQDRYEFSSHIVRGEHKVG
T1 sequence (Q96SW2 whole entry): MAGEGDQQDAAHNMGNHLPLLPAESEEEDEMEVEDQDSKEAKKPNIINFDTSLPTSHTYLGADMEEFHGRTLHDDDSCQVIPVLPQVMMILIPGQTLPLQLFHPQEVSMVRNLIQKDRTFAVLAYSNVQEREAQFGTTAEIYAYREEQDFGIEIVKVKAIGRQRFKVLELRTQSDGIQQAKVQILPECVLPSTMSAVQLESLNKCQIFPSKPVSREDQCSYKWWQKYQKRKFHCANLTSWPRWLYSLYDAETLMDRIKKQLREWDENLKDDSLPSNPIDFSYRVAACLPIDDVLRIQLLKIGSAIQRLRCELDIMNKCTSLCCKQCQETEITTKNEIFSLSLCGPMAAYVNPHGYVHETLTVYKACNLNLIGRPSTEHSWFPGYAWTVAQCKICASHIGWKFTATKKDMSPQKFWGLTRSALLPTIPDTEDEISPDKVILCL
T1 sequence (Q16531 whole entry partner): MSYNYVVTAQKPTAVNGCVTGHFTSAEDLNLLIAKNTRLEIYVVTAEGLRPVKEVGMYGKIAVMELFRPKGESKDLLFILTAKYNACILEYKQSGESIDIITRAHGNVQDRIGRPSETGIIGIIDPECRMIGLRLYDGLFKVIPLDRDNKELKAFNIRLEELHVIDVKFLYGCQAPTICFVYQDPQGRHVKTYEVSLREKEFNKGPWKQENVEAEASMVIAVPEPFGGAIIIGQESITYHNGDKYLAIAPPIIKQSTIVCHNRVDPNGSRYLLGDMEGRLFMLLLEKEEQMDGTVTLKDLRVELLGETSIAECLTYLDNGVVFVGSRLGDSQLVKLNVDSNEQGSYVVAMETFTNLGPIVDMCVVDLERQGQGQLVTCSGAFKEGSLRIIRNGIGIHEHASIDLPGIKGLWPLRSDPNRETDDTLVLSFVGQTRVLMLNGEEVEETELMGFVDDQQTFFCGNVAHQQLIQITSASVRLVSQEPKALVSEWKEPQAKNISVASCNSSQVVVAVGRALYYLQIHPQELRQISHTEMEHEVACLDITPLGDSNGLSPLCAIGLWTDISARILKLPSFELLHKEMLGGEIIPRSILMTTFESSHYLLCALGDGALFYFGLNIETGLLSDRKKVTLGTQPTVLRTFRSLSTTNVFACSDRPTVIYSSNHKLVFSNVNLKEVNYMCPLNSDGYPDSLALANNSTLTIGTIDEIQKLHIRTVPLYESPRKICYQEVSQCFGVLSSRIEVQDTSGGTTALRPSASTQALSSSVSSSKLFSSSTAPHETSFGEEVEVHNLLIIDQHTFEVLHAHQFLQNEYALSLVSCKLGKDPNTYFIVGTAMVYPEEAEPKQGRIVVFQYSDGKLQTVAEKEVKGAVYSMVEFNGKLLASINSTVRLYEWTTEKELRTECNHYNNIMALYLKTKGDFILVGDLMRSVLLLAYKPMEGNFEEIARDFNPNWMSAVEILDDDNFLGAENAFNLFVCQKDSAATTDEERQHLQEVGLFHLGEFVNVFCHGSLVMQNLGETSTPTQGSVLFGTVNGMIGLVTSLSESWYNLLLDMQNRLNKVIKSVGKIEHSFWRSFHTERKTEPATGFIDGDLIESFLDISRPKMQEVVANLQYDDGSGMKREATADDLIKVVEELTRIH
T2 sequence (Q9UKS7 whole entry): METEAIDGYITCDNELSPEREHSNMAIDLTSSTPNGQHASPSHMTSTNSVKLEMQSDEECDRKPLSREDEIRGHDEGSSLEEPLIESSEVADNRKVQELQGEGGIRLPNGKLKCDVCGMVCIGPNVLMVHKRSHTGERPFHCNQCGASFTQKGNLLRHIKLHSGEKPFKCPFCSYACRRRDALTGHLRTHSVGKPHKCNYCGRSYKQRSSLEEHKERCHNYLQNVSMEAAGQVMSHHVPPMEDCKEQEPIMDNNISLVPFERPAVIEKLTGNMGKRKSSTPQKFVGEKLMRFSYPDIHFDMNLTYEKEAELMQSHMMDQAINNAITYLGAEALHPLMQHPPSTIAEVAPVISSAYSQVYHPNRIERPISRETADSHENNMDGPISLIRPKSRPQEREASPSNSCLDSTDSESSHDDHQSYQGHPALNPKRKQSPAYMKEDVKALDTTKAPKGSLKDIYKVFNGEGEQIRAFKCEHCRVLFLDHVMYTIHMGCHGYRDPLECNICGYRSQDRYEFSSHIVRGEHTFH
T2 sequence (Q96SW2 whole entry): as the sequence (Q96SW2 whole entry) above
T2 sequence (Q16531 whole entry partner): as the sequence (Q16531 whole entry partner) above
Chain of IKZF1 Ikaros (Q13422 whole entry): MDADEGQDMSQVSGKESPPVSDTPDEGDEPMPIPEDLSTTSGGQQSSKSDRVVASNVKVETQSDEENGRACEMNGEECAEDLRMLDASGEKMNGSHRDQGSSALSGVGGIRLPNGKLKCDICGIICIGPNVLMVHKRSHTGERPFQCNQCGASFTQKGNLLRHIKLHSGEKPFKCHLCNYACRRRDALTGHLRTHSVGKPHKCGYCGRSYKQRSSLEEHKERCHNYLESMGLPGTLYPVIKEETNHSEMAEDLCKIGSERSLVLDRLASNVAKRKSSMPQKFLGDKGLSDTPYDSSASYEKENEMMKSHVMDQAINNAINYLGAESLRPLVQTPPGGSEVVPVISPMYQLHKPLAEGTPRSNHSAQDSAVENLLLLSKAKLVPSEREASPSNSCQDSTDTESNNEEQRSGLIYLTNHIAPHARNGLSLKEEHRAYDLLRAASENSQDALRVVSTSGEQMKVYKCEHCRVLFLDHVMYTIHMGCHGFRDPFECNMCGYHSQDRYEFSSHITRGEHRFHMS
Chain of IKZF1 Ikaros (Q96SW2 whole entry): as the sequence (Q96SW2 whole entry) above
Chain of IKZF1 Ikaros (Q16531 whole entry partner): as the sequence (Q16531 whole entry partner) above

Turning to `O=C1CCC(N2Cc3c(ccc(-c4cc(CN5CC(c6ccccc6)C5)ccn4)c3F)C2=O)C(=O)N1` (stereo not drawn) [Comparative Compound A, 3-(4-fluoro-1-oxo-5-(4-((3-phenylazetidin-1-yl)methyl)pyridin-2-yl)isoindolin-2-yl) piperidine-2,6-dione], the Dmax in test [1] came out at 13%; in test [2], 92%; in test [3] it was 92%. The DC50 in test [2] was 0.1 nM; in test [3], 2.2 nM; in test [4], 2.9 nM.
With `Nc1nc(-c2ccc3c(c2)CN(C2CCC(=O)NC2=O)C3=O)ccc1CN1CC2(CCC2)C1` (stereo not drawn) [Comparative Compound B, 3-(5-(5-((2-azaspiro[3.3]heptan-2-yl)methyl)-6-aminopyridin-2-yl)-1-oxoisoindolin-2-yl) piperidine-2,6-dione], the Dmax was 48% in test [1], 95% in test [2], 90% in test [3] and 90% in test [4]. The DC50 was 1 nM in test [2], 25 nM in test [3] and 8 nM in test [4].
As to `Nc1nc(-c2ccc3c(c2F)CN(C2CCC(=O)NC2=O)C3=O)ccc1CN1CC2(CCCOC2)C1` (stereo not drawn) [Example 1, 3-(5-(5-((6-oxa-2-azaspiro[3.5]nonan-2-yl)methyl)-6-aminopyridin-2-yl)-4-fluoro-1-oxoisoindolin-2-yl) piperidine-2,6-dione], the DC50 in test [1] (concentration reducing protein level by 50% vs DMSO) turned out to be 6440 nM; in test [2], 3.4 nM; in test [3] it was 38 nM; in test [4], 8.5 nM. Further, the Dmax in test [1] was 53%; in test [2] it was 65%; in test [3], 85%; in test [4], 91%.

The values above are taken from patent US20260297106A1, “SPIROCYCLIC SUBSTITUTED OXOISOINDOLINYL PIPERIDINE-2,6-DIONE COMPOUND” (Bristol-Myers Squibb Company, priority 2023, published 2026).
